Measurements: paper PMC3919114, “Induction of Apoptosis of 2,4′,6-Trihydroxybenzophenone in HT-29 Colon Carcinoma Cell Line” (BioMed Research International, 2014)
Read-outs that look alike come from different tables or passages of the source.

Key:
[1] = system: human esophageal cancer cells (TE-2); settings: cited from earlier work
[2] = system: breast cancer cell line (MDA-MB231); settings: cited from earlier work
[3] = system: HT-29 human colon carcinoma cell line; assay: MTT cell proliferation assay, HT-29; format: cell-based; settings: read-out: IC50 against HT-29 cells
Protocol: (§1) The HT-29 human colon carcinoma cell line, WRL-68 normal liver cells, and MRC-5 normal lung fibroblast […] cells were purchased from the American Type Culture Collection (ATCC, USA). The cells were placed into tissue culture flasks and grown in a medium containing 10% fetal bovine serum, 100 μg/mL of penicillin/streptomycin, and 100 μg/mL of amphotericin B at 37°C in a humidified atmosphere containing 5% CO2.
(§2) The MTT […]) cell proliferation assay was based on the protocol described by Mosmann. Briefly, cells from a confluent tissue culture flask were spun at 1,000 rpm for five minutes and resuspended in 1.0 mL of growth medium. Cells were then seeded into 96 well plates and incubated in a CO2 incubator at 37°C for 24 hours to allow the cells to adhere and achieve 70%–80% confluence. After 24 hours, the media was removed and the test compound, at varying concentrations of 4, 38, 96, 192, and 384 μM with 200 μL of 10% medium, was added to the respective wells. For negative control, untreated cells were used. After 24 h, 48 h, and 72 h of incubation, respectively, each well had 10 μL of the MTT stock solution added to the test sample and was then incubated in a dark place for three hours. The medium with the MTT solution was removed and 200 μL of absolute DMSO was added to each well in order to solubilise the formazan crystals that had formed. The total amount of formazan crystals was examined by measuring the absorbance at 540 nm using an ELISA plate reader. The assay was carried out in triplicate.
(§3) The percentage of inhibition (%) was calculated using the following formula: (1) percentage of inhibition (%) =OD control−OD sample×100% /OD control, where OD = optical densities.
(§4) The IC50 value is the concentration of test compounds which cause 50% inhibition or cell death, average from three experiments, and was obtained by plotting the percentage of inhibition versus the concentration of test compounds [13].

[4] = system: human normal liver cells (WRL-68); assay: MTT cell proliferation assay, WRL-68; format: cell-based
Protocol: as §1, §2, §3, §4

[5] = system: human normal fibroblast lung cells (MRC-5); assay: MTT cell proliferation assay, MRC-5; format: cell-based
Protocol: as §1, §2, §3, §4

[6] = Annexin V-FITC/PI staining assay by flow cytometry; format: cell-based, human; settings: human, HT-29 cells, 24 h, read-out: viable cells (LL)
Protocol: (§5) The quantification of cell death was determined by flow cytometry using the Annexin V-FITC apoptosis detection kit according to the manufacturer's instructions (BD Pharmingen, BD Bioscience, USA). Briefly, 1 × 10^6 of the HT-29 cells were seeded into each Petri dish (30 mm) and after a 24 h incubation, various concentrations of the test compound were added and incubated for 24 h, 48 h, and 72 h, respectively. The cells were then washed with PBS, suspended in annexin V binding buffer and then added to an annexin V-FITC solution and propidium iodide (PI) for 10 minutes at room temperature. The samples were then analyzed using FACScalibur (BD Bioscience, USA) using CellQuest Pro analysis software (Becton Dickinson, USA).
(§6) Cells were treated with various concentrations (96 μM, 192 μM, and 288 μM) of the compound for 24 h, 48 h, and 72 h, respectively. They were then harvested with accutase and phosphate buffer saline and centrifuged, after which they were stained with Annexin V-FITC and propidium iodide and analyzed in FACScalibur with CellQuest Pro software. The number of early apoptotic cells, late apoptotic cells, live cells, and necrotic cells was counted in every 10,000 cells of each treatment. All data was expressed as the mean ± SD (standard deviation). The standard deviation was calculated for the treated and untreated cells. The SPSS program (version 16.0) found a significant difference between the treated and untreated cells ([…]).

HT-29 cells [7] = assay: Annexin V-FITC/PI staining assay by flow cytometry; format: cell-based, human
Protocol: as §5, §6

HT-29 cells [8] = assay: Cell cycle analysis by flow cytometry (PI staining); format: cell-based, human; settings: IC50 value of 115 μM
Protocol: After incubation, the cells were collected by trypsinization, fixed in ethanol, washed in warm PBS, and incubated at −20°C, overnight. Next, the cells were washed with 1 mL of cold PBS and stained with propidium iodide according to the Cycle TEST PLUS DNA Reagent Kit (Becton Dickinson, USA) protocol. The cells were sorted in a FACScalibur flow cytometer (BD, USA) using CellQuest Pro software (Becton Dickinson, USA) and a quantitative analysis of the cell cycle distribution was performed using a trial version of the ModFit LT software, version 4.0.
The HT-29 cells were treated with isolated bioactive 2,4′,6-trihydroxy-4-methoxybenzophenone for 24 h, 48 h, and 72 h. Treated and untreated cells were harvested with accutase and phosphate buffer saline, centrifuged, and stained with propidium iodide. The HT-29 cells were then analyzed by flow cytometry using CellQuest Pro software and their distribution in different phases of the cell cycle is shown in Figure 6(a). The resulting data were tabulated using the trial version of the ModFit L.V 4.0 software to represent a percentage of each cell cycle phase (G0/G1, S, and G2/M), as shown in Figure 6(b).

Mcl-1 = assay: Western blot analysis, Mcl-1 expression in HT-29 cells; format: cell-based, human; settings: IC50 concentration (115 μM), 24 h, 48 h and 72 h
Protocol: (§7) The HT-29 cells were cultured in […] tissue culture flasks and incubated at 37°C under 5% CO2 until confluent. […] After incubation at the various times, the cells were detached with accutase in PBS, washed thoroughly with PBS twice, and were then lysed with protein lysis buffer (Sigma, USA) containingprotease inhibitors and shaken by hand for 15 min at room temperature. The lysates were then centrifuged at 13,000 ×g for 20 min at 4°C and the supernatant was collected for protein samples and kept at […] until SDS page analysis. Protein concentration was determined using a BCA (bicinchoninic acid) protein assay kit (Invitrogen, USA) with bovine serum albumin as the standard.
(§8) The proteins were transferred into polyvinylidene difluoride (PVDF) membranes by semidry transfer. Bands were visualized using the Western Max Horseradish Peroxidase Chromogenic Detection Kit protocol (AMRESCO, USA). Briefly, the membranes were blocked in a blocking buffer for 30 min at room temperature. Primary antibodies for Bcl-2, Bcl-xL, PUMA, Mcl-1, Bak, Bad, and Bax were then added. The membranes were incubated with gentle agitation at room temperature overnight. After incubation, the membranes were washed with washing buffer two times and then incubated with Western Max HRP Conjugated Anti-Rabbit Antibody for 45 min at room temperature with gentle agitation. […]

PUMA = assay: Western blot analysis, PUMA expression in HT-29 cells; format: cell-based, human; settings: IC50 concentration (115 μM), 24 h, 48 h and 72 h
Protocol: as §7, §8

Bcl-2 = assay: Western blot analysis, Bcl-2 expression in HT-29 cells; format: cell-based, human; settings: IC50 concentration (115 μM), 72 h treatment only
Protocol: as §7, §8

Bak = assay: Western blot analysis, Bak expression in HT-29 cells; format: cell-based, human; settings: IC50 concentration (115 μM), 72 h treatment only
Protocol: as §7, §8

HT-29 cells [9] = assay: Morphological detection of apoptosis (inverted and phase-contrast microscopy); format: cell-based, human; settings: IC50 concentrations (115 μM), 24 h, 48 h, 72 h
Protocol: HT-29 cells were placed in a Petri dish (30 mm) at a density of 1 × 10^5 cells/well plate and grown for 24 h. […] After the various incubation periods, morphological changes in the apoptotic bodies of the HT-29 cells were examined by inverted and phase-contrast microscopy (Leica, Germany) and photographed.

[10] = parameters: method as in earlier work; settings: from ethyl acetate extract of the leaves; cited from earlier work

Compound: O=C(O)c1cc(O)c(O)c(O)c1 [Gallic acid]
- anticancer properties against TE-2 cells [1]: possess anticancer properties

Compound: COc1cc(O)c(C(=O)c2ccc(O)cc2)c(O[C@@H]2O[C@H](CO)[C@@H](O)[C@H](O)[C@H]2O)c1 [4′,6-dihydroxy-4-methoxybenzophenone 2-o-β-D-glucopyranoside]
- antiproliferation activity against MDA-MB231 [2]: displayed antiproliferation activity

Compound: COc1cc(O)c(C(=O)c2ccc(O)cc2)c(O)c1 [2,4′,6-trihydroxy-4-methoxybenzophenone]
- IC50 ([3]; 24 h): 172 ± 2.21 µM
- IC50 ([3]; 48 h): 144 ± 2.66 µM
- IC50 ([3]; 72 h): 122 ± 1.69 µM
- IC50 ([4]; WRL68, 24 h): ≥ 384 µM
- IC50 ([4]; WRL68, 48 h): 331 ± 0.69 µM
- IC50 ([4]; WRL68, 72 h): 235 ± 1.03 µM
- IC50 ([5]; MRC5, 24 h): ≥ 384 µM
- IC50 ([5]; MRC5, 48 h): 269 ± 0.96 µM
- IC50 ([5]; MRC5, 72 h): 356 ± 1.21 µM
- viability at 24 h, 96 µM ([6]; 96 μM): 69.3%
- viability at 24 h, 192 µM ([6]; 192 μM): 35.2%
- viability at 24 h, 288 µM ([6]; 288 μM): 23.8%
- early apoptotic cells (LR) (HT-29 cells [7]; 96 μM, 24 h): 2.96%
- late apoptotic cells (UR) (HT-29 cells [7]; 96 μM, 24 h): 12.28%
- primary necrotic cells (UL) (HT-29 cells [7]; 96 μM, 24 h): 15.49%
- early apoptotic cells (LR) (HT-29 cells [7]; 96 μM, 48 h): 10.87%
- late apoptotic cells (UR) (HT-29 cells [7]; 96 μM, 48 h): 31.48%
- primary necrotic cells (UL) (HT-29 cells [7]; 96 μM, 48 h): 8.04%
- early apoptotic cells (LR) (HT-29 cells [7]; 96 μM, 72 h): 1.33%
- late apoptotic or secondary necrotic cells (UR) (HT-29 cells [7]; 96 μM, 72 h): 15.77%
- live cells (LL) (HT-29 cells [7]; 96 μM, 72 h): 52.21%
- primary necrotic cells (UL) (HT-29 cells [7]; 96 μM, 72 h): 30.69%
- early apoptotic cells (LR) (HT-29 cells [7]; 192 μM, 24 h): 8.46%
- late apoptotic cells (UR) (HT-29 cells [7]; 192 μM, 24 h): 25.98%
- primary necrotic cells (UL) (HT-29 cells [7]; 192 μM, 24 h): 30.40%
- early apoptotic cells (LR) (HT-29 cells [7]; 192 μM, 48 h): 4.74%
- live cells (LL) (HT-29 cells [7]; 192 μM, 48 h): 34.22%
- primary necrotic cells (UL) (HT-29 cells [7]; 192 μM, 48 h): 35.05%
- early apoptotic cells (LR) (HT-29 cells [7]; 192 μM, 72 h): 14.34%
- late apoptotic or secondary necrotic cells (UR) (HT-29 cells [7]; 192 μM, 72 h): 58.97%
- live cells (LL) (HT-29 cells [7]; 192 μM, 72 h): 12.73%
- primary necrotic cells (UL) (HT-29 cells [7]; 192 μM, 72 h): 13.96%
- early apoptotic cells (LR) (HT-29 cells [7]; 288 μM, 24 h): 6.71%
- late apoptotic cells (UR) (HT-29 cells [7]; 288 μM, 24 h): 50.81%
- primary necrotic cells (UL) (HT-29 cells [7]; 288 μM, 24 h): 19.63%
- early apoptotic cells (LR) (HT-29 cells [7]; 288 μM, 48 h): 8.51%
- late apoptotic cells (UR) (HT-29 cells [7]; 288 μM, 48 h): 54.67%
- live cells (LL) (HT-29 cells [7]; 288 μM, 48 h): 26.80%
- primary necrotic cells (UL) (HT-29 cells [7]; 288 μM, 48 h): 10.02%
- early apoptotic cells (LR) (HT-29 cells [7]; 288 μM, 72 h): 0.28%
- late apoptotic or secondary necrotic cells (UR) (HT-29 cells [7]; 288 μM, 72 h): 8.45%
- live cells (LL) (HT-29 cells [7]; 288 μM, 72 h): 54.64%
- primary necrotic cells (UL) (HT-29 cells [7]; 288 μM, 72 h): 36.63%
- cell percentage in the G2/M phase (HT-29 cells [8]; 24 h): 13.61%
- cell percentage in the S phase (HT-29 cells [8]; 24 h): 15.70%
- percentage of diploid cells in the G0/G1 phase (HT-29 cells [8]; 24 h): 70.69%
- effect on cell cycle (HT-29 cells [8]; 24 h, 48 h, 72 h, time-dependent): cell cycle arrest in the G0/G1 phase
- cell percentage in the G2/M phase (HT-29 cells [8]; 48 h): 3.17%
- cell percentage in the S phase (HT-29 cells [8]; 48 h): 16.85%
- percentage of diploid cells in the G0/G1 phase (HT-29 cells [8]; 48 h): 79.98%
- cell percentage in the G2/M phase (HT-29 cells [8]; 72 h): 3.20%
- cell percentage in the S phase (HT-29 cells [8]; 72 h): 8.60%
- percentage of diploid cells in the G0/G1 phase (HT-29 cells [8]; 72 h): 88.21%
- expression of Mcl-1 (Mcl-1): significantly upregulated
- expression of PUMA (PUMA): significantly upregulated
- expression of Bcl-2 (Bcl-2): only up-regulated for 72 h treatment
- expression of Bak (Bak): only up-regulated for 72 h treatment
- morphological changes associated to apoptosis (HT-29 cells [9]): membrane blebbing, cell shrinkage, chromatin condensation, apoptotic nuclei, and DNA fragmentation
- antiproliferation activity against MDA-MB231 [2]: displayed antiproliferation activity
- antioxidant activity [10]: good antioxidant activity
